Results on two molecules are retold here after article PMC3684770 (Free Radical Biology & Medicine, 2013).

The test system of data set [1] is C6 astrocyte cell line. The experiment in a line: C6 oxidative stress assay (serum withdrawal, DCF).
Description: (§1) Media were then replaced with serum-free, phenol-free media for 5 h.
For data set [2], the system named is Nrf2-ARE pathway. The experiment in a line: ARE reporter assay in CHO 4xARE-TK-GFP cells (Spectrum library hits).
For data set [3], the system named is Nrf2-ARE pathway. Briefly: ARE reporter assay in C6 astrocyte cell line (C6-ARE). It counts as cell-based, rat. Conditions: C6-ARE, highest dose. An excerpt:
Chinese hamster ovary (CHO), NSC34 mouse motor neuronal cells […] The ARE-TK-GFP and TK-GFP reporter constructs were a kind gift from William E. Fahl McArdle Laboratory for Cancer Research, University of Wisconsin. […] The NSC34 cell lines stably expressing G93A mutant hSOD1 have been described previously. […] Mouse embryonic fibroblasts were generated and maintained as described previously.

Data set [4] concerns the target D1 receptors. As to conditions: read-out: Ki D1 receptors; cited from earlier work.
Data set [5] has as its target D4 receptors. Conditions: read-out: Ki D4 receptors; cited from earlier work.
The test system of data set [6] is NSC34 cells. The experiment in a line: NSC34 oxidative stress assay (serum withdrawal, DCF).
Description: as §1
Data set [7] concerns 1321N1 astrocyte cell line. The experiment in a line: 1321N1 oxidative stress assay (serum withdrawal, DCF).
Description: as §1
For data set [8] the following is noted: mouse ref 73; cited from earlier work.
The test system of data set [9] is primary fibroblasts from ALS patients. The experiment in a line: Oxidative stress assay in ALS patient and control fibroblasts. In kind it is cell-based, human. As to conditions: 3.7 or 0.41 µM, 24 h. The method, then:
Fibroblasts were obtained from human controls (n=3) and ALS patients with I113T SOD1 mutations (n=3) and sporadic ALS patients (n=2). […] The cells were incubated at 37 °C/5% CO2 overnight. The following day the media were removed and the cells were washed with 200 µl 1XP BS. Phenol red-free DMEM/F12 media (Sigma D6434) was added in the presence of 10% serum/2 mM Gln (++), 10% serum/0 mM Gln (+−), or 0% serum/0 mM Gln (−−). Cells were incubated at 37 °C/5% CO2 for 5 h.
Carboxy-H2DCFDA fluorescence was normalised to live cell number (total EthD1 signal after freeze/thaw – EthD1 signal after assay) to compare between the different cell lines. Data were analysed by one-way ANOVA with Bonferroni post tests using GraphPad Prism
DMEM/F12 (50 µl) media were added in the presence of 10% serum/0 mM Gln (+−) and the cells were incubated at 37 °C and 5% CO2 for 5 h.
The data were tested for normality and analysed by one-way ANOVA using GraphPad Prism.

A short description of data set [10]: Pharmacokinetic analysis in C57Bl/6 mice. In kind it is in vivo, mouse. As to conditions: 1 mg/kg. The method, then:
Pharmacokinetic studies were performed by Pharmidex (London, UK). […] All concentrations were calculated with reference to the relevant standard curve. An extraction buffer (EB) solution of acetonitrile with 0.1% formic acid (Fisher Scientific, HPLC grade) and 500 ng/ml of propranolol as the internal standard (IS) was used for in all extraction protocols.

The conditions of data set [11]: cited from earlier work.
Setting [12] is: minimum dose at which toxicity was observed.

Structures are written as SMILES. Where a name gives a salt, the structure may show the parent alone.

As to `CN1CCc2cccc3c2[C@H]1Cc1ccc(O)c(O)c1-3` [Apomorphine hydrochloride, reference compound], the Emax in [1] (Rattus norvegicus, Astrocyte, 24 h, read-out: C6 oxidative stress assay Max reduction) turned out to be 62%; in data set [6] (Mus musculus, NSC-34, 24 h, read-out: NSC34 oxidative stress assay Max reduction), 25%; in data set [7] (Homo sapiens, 1321-N1, 24 h, read-out: 1321N1 oxidative stress assay Max reduction), 79%. Moreover, the IC50 in data set [1] (Rattus norvegicus, Astrocyte, read-out: C6 oxidative stress assay IC50) is 1690 nM; in data set [6] (Mus musculus, NSC-34, read-out: NSC34 oxidative stress assay IC50) it was 174 nM; in data set [7] (Homo sapiens, 1321-N1, read-out: 1321N1 oxidative stress assay IC50), 1700 nM. Further, the “C6 oxidative stress assay Toxic dose” value in data set [1] (setting [12]) was “None”. Further, the response in data set [2] (Cricetulus griseus) was half-maximal at 25900 nM (EC50). The molecule also came in with a Toxic dose in data set [2] (lowest dose at which a reduction in GFP fluorescence was observed) of 100 µM. In [3], the dose showing toxicity was determined as 30 µM. In addition, the Ki in data set [4] is 370 nM; in data set [5], 4.4 nM. The “NSC34 oxidative stress assay Toxic dose” value in data set [6] (setting [12]) came out at 10 µM. Besides, in [7] (setting [12]), the “1321N1 oxidative stress assay Toxic dose” value is on record as “None”.
Regarding `CN1CCc2cccc3c2[C@H]1Cc1ccc(O)c(O)c1-3` [apomorphine], in data set [8], the “plasma protein binding fraction (unbound)” value is 0.222. Moreover, in [9], the “cell number compared to DMSO control” value was “no effect on cell number”. Moreover, the Kp in data set [10] (C57Bl/6, mouse, brain / plasma, intravenous, read-out: brain:plasma (Kp)) was 2.1. In [10] (C57Bl/6, plasma, mouse, iv), this molecule displayed a clearance of 109 mL/min/kg. Moreover, the “fraction absorbed following subcutaneous dosing” value in [11] (humans ref 75) was 1. The “Tmax following subcutaneous dosing” value in data set [11] (humans ref 76) was 8 to 16 min.
